Reference: ChEMBL document CHEMBL1201862, “PubChem BioAssay data set” (2004)
Activity calls are given as the source filed them.

How the values were obtained:
[1] = Cytotoxicity screening for potential Inhibitors of Bacterial Capsule Biogenesis. [Related pubchem assays (depositor defined):AID488970]; type: functional
Protein skinhead-1 = biological target: T1, Protein skinhead-1 (Caenorhabditis elegans, UniProt P34707); type: functional
T1 sequence (P34707 whole entry): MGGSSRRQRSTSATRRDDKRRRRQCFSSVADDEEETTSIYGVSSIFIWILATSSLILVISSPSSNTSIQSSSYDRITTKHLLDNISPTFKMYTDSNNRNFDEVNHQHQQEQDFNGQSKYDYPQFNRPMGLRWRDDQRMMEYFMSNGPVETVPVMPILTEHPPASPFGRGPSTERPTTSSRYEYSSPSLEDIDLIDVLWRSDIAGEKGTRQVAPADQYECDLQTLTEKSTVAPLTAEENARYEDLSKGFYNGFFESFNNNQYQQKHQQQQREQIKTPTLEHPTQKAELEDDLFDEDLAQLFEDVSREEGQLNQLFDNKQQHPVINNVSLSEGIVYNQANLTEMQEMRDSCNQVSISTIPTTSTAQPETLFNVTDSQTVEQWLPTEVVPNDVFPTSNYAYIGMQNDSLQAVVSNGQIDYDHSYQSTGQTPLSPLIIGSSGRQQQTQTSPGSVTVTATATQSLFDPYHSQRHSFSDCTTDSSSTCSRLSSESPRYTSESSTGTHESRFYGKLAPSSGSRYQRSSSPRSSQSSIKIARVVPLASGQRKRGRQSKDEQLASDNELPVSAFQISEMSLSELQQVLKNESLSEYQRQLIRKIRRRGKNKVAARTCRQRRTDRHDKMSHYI

HEK293 [2] = experiment: cells; type: functional, cell-based; conditions: Homo sapiens
[3] = blockers of bursicon-stimulated LGR2 cAMP reporter – cell-based, HEK293, CRE-luciferase reporter, cherry pick, set 2, dose response (AID 743343); type: functional;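 further: transfected cells were stimulated with diluted bursicon conditioned medium after compound addition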
[4] = biological target: T2, Nucleotide-binding oligomerization domain-containing protein 1 (Homo sapiens, UniProt Q9Y239); experiment: blockers of NOD1 pathway activity – revised, SAR follow-up (AID 2333); type: functional
T2 sequence (Q9Y239 whole entry): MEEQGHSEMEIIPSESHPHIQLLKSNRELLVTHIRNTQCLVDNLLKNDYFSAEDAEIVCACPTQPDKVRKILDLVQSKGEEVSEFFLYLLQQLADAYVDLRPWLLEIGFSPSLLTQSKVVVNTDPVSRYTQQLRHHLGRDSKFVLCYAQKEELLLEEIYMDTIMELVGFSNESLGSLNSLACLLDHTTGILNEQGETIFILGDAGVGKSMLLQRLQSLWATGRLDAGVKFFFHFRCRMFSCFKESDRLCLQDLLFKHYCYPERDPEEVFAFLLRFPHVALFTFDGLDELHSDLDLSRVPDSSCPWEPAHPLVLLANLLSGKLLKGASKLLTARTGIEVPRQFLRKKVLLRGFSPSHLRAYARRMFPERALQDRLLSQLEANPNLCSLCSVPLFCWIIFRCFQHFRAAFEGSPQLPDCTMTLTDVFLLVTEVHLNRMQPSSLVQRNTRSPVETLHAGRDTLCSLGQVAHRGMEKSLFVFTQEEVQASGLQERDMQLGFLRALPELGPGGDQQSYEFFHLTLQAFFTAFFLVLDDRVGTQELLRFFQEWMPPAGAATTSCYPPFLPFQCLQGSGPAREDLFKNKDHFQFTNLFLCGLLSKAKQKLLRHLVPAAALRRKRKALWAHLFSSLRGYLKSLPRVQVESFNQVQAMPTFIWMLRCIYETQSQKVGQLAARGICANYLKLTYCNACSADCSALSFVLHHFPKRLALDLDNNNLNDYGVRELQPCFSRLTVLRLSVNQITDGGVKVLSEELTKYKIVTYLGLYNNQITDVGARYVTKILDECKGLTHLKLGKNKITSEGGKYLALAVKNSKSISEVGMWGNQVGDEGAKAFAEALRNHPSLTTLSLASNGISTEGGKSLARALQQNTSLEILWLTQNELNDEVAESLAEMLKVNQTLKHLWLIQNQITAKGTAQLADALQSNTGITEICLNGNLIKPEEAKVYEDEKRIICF

HEK293 [5] = experiment: NOD2 signaling inhibitors in MDP-stimulated cells, cell-based, uHTS, luminescence (AID 2001); type: functional; conditions: Homo sapiens
[6] = biological target: Nucleotide-binding oligomerization domain-containing protein 2 (Homo sapiens, UniProt Q9HC29); experiment: PubChem AID 2334; type: functional
Sequence of Nucleotide-binding oligomerization domain-containing protein 2 (Q9HC29 whole entry, the tested form may be a part): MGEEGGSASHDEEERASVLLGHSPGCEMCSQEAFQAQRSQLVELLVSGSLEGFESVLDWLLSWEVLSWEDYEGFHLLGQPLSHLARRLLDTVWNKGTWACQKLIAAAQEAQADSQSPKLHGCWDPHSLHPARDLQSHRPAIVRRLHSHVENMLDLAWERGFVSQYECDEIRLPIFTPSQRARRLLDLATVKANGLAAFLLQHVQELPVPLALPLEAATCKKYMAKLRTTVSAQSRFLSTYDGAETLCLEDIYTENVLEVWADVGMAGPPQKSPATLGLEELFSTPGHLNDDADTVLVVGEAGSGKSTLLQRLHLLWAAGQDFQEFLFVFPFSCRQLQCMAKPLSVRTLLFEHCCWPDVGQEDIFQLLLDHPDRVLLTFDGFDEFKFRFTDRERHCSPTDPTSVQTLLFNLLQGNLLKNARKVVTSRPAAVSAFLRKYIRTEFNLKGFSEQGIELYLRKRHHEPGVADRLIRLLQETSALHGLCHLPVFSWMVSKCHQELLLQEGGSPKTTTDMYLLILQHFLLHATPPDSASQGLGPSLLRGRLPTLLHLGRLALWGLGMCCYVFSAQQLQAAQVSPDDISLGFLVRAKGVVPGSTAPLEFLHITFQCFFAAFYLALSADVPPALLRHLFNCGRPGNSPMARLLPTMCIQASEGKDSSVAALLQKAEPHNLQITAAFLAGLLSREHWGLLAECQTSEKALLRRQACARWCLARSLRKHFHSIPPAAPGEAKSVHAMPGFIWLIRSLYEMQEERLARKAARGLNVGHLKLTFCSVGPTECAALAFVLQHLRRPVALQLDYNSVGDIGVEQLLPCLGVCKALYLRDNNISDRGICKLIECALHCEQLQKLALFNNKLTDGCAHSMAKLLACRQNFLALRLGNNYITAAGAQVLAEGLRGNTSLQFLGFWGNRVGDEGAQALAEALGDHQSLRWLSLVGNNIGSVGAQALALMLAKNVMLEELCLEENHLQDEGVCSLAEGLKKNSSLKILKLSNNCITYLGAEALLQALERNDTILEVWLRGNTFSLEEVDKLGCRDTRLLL

[7] = A549 cell cytotoxicity, dose response, cytotoxicity control, plate reader, cherry-pick, antagonist series (AID 743412); type: functional, cell-based
Tumor necrosis factor = Tumor necrosis factor (Homo sapiens, UniProt P01375); experiment: analog potency on TNFa NF-kB signaling – cell-based, revised, SAR follow-up (AID 2337); type: functional
Sequence of Tumor necrosis factor (P01375 whole entry): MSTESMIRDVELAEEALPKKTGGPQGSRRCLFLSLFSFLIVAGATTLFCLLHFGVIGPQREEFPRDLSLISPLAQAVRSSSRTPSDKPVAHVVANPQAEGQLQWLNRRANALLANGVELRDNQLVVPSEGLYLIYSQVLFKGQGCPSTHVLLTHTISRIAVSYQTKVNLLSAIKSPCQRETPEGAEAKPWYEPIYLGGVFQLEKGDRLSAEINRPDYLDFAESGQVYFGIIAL

HEK293 [8] = experiment: cells; type: functional, cell-based; conditions: Homo sapiens; remark: listed apart in the source
[9] = viability of HCT116 lacking mutant beta-catenin – cell-based, human colon tumor, dose response (AID 1045); type: functional;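 further: HCT116 colon tumor cells with beta catenin knocked out; cells exposed to compound for 60 hours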
[10] = HPDE-C7 pancreatic duct cell viability loss – fluorescence, HTS (AID 430); type: functional, cell-based; conditions: Homo sapiens
[11] = blockade of melanocortin 4 receptor signaling – cell-based, plate reader, cherry pick, counter-screen for LGR2 antagonist project, dose response (AID 743444); type: functional;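 further: transfected HEK 293 cells stimulated with alpha-MSH peptide; potency of inhibitors of the alpha-MSH evoked signal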
[12] = viability of PTEN-deleted HCT116 cells – cell-based, HCT116 PTEN knockout, dose response (AID 1047); type: functional;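 further: HCT116 colon tumor cells with PTEN knocked out; cells exposed to compound for 60 hours before readout; potency for loss of cell viability measured by luminescence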
HEK293 [13] = experiment: cells; conditions: Homo sapiens
[14] = viability loss of HPDE-C7K cells – cell-based, fluorescence, HTS, primary screen (AID 431); type: functional; conditions: Homo sapiens
HEK293 [15] = experiment: inhibition of NOD1-driven NF-kB reporter – cell-based, luminescence, uHTS, primary screen (AID 1578); type: functional; conditions: Homo sapiens
[16] = biological target: T3, Ubiquitin-conjugating enzyme E2 N (Homo sapiens, UniProt P61088); type: functional
T3 sequence (P61088 whole entry): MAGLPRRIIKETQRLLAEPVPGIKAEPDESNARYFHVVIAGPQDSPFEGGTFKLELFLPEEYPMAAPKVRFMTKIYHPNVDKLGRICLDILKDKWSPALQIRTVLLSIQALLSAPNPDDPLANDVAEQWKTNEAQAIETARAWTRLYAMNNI

Bcl-2-related protein A1 = biological target: T4, Bcl-2-related protein A1 (Mus musculus, UniProt Q07440); type: functional;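 further: confirmatory dose–response counterscreen on Bfl-1, used to check hits from a UBC13 polyubiquitin inhibitor campaign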
T4 sequence (Q07440 whole entry): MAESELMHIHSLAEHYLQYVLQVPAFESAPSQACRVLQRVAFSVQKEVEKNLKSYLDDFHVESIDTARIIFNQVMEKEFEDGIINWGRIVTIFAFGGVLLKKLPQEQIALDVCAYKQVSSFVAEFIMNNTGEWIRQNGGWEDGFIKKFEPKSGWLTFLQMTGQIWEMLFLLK

Paired box protein Pax-8 = Paired box protein Pax-8 (Homo sapiens, UniProt Q06710); experiment: PAX8 transcriptional activity inhibition in RMG-I – RMG-I cells, luciferase, cherry-pick, dose response (AID 687027); type: functional, cell-based;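 further: luciferase reporter driven by Pax8 target thyroperoxidase promoter measured by SteadyGlo luminescence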
Sequence of Paired box protein Pax-8 (Q06710 whole entry): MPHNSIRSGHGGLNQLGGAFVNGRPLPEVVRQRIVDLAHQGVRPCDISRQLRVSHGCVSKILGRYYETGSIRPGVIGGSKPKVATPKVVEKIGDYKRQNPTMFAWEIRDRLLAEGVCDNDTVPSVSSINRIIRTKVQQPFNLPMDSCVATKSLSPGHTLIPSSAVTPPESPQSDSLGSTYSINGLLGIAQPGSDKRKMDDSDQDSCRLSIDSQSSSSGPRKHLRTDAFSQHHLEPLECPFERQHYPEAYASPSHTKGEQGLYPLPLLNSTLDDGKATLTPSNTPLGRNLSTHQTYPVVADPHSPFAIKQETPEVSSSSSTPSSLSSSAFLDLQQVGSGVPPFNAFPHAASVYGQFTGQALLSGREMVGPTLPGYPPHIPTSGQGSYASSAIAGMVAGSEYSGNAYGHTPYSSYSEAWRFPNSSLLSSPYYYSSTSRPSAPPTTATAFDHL

[17] = biological target: T3, Ubiquitin-conjugating enzyme E2 N; type: functional; remark: listed apart in the source

COc1ccc2nc(NC(=O)c3ccc(Br)s3)sc2c1
CC50 [1]: > 100 µM (active)
IC50 (Protein skinhead-1): > 100 µM (inactive)

CCCc1nc(SCC(=O)N2CCC(Cc3ccccc3)CC2)c2c(=O)n(C)c(=O)n(C)c2n1
IC50 (HEK293 [2]): 8.67 µM (active)
AC50 [3]: 18.6 µM (active)
IC50 [4]: 12.2 µM (active)
IC50 (HEK293 [5]): 5.22 µM (active)
IC50 [6]: 11.4 µM (active)
AC50 [7]: > 52 µM (inactive)
IC50 (Tumor necrosis factor): 11 µM (active)
IC50 (HEK293 [8]): > 20 µM (inactive)
EC50 [9]: 33.7 µM (active)
EC50 [10]: 6.8 µM (active)
AC50 [11]: 17.9 µM (active)
EC50 [12]: 33.6 µM (active)
IC50 (HEK293 [13]): 19.3 µM (active)
EC50 [14]: 6.62 µM (active)
EC50 (HEK293 [15]): 5.46 µM (active)

COC(=O)c1c(NC(=O)C(=O)N2CCCCC2)sc2c1CC(C)(C)OC2
IC50 [4]: > 20 µM (inactive)
IC50 [6]: > 20 µM (inactive)
IC50 (Tumor necrosis factor): > 20 µM (inactive)
IC50 (HEK293 [13]): > 20 µM (inactive)

O=C(Nc1cccc(C2=NCCN2)c1)Nc1cccc(C2=NCCN2)c1 [IMIDOCARB DIPROPIONATE]
IC50 [16]: 13.2 µM (active)
IC50 (Bcl-2-related protein A1): > 20 µM (inactive)
CC50 [1]: > 100 µM (active)
AC50 (Paired box protein Pax-8): 0.879 µM (active)
IC50 [17]: 10.6 µM (active)
